Data: ChEMBL document CHEMBL3885881, “DrugMatrix”

Species: Rattus norvegicus
Assay: DrugMatrix - Regimen: Daily Repeat
Format: toxicity, organism-based, Sprague-Dawley
Set-up: regimen Daily Repeat, gender Male, age 6-8 weeks
Conditions: in vivo, sc, route subcutaneous, […]; for ABSOLUTE BASOPHIL / ABSOLUTE EOSINOPHIL / ABSOLUTE LYMPHOCYTE / ABSOLUTE MONOCYTE / ABSOLUTE SEGMENTED NEUTROPHIL / BASOPHIL / EOSINOPHIL / ERYTHROCYTE COUNT / HEMATOCRIT / HEMOGLOBIN / LEUKOCYTE COUNT / LYMPHOCYTE / MEAN CORPUSCULAR HEMOGLOBIN / MEAN CORPUSCULAR HEMOGLOBIN CONCENTRATION / MEAN CORPUSCULAR VOLUME / MONOCYTE / NEUTROPHIL / NUCLEATED RED BLOOD CELLS / PLATELET COUNT: tissue Blood; for ALANINE AMINOTRANSFERASE / ALBUMIN / ALKALINE PHOSPHATASE / ASPARTATE AMINOTRANSFERASE / BLOOD UREA NITROGEN / CARBON DIOXIDE / CHLORIDE / CHOLESTEROL / CREATINE PHOSPHOKINASE / CREATININE / GLUCOSE / LACTATE DEHYDROGENASE / LIPASE / PHOSPHORUS / POTASSIUM / SODIUM / TOTAL BILIRUBIN / TOTAL PROTEIN / URIC ACID: tissue Plasma
[1] = 56 mg/kg, 120 h, dose level High, time 5 day
[2] = 72 h, dose 3.3 mg/Kg, dose level Low, time 3 day
[3] = 120 h, dose 3.3 mg/Kg, dose level Low, time 5 day

Structure (SMILES): C[C@]12CCC(=O)C=C1CC[C@@H]1[C@@H]2[C@@H](O)C[C@@]2(C)[C@H]1CC[C@]2(O)C(=O)CO [HYDROCORTISONE]
- ABSOLUTE BASOPHIL [1]: 0 CELLS/uL
- ABSOLUTE EOSINOPHIL [1]: 0 CELLS/uL
- ABSOLUTE LYMPHOCYTE [1]: 1058 CELLS/uL
- ABSOLUTE MONOCYTE [1]: 166.67 CELLS/uL
- ABSOLUTE SEGMENTED NEUTROPHIL [1]: 5575.33 CELLS/uL
- BASOPHIL [1]: 0%
- EOSINOPHIL [1]: 0%
- ERYTHROCYTE COUNT [1]: 6.58 x10E6/uL
- HEMATOCRIT [1]: 40.47%
- HEMOGLOBIN [1]: 15.5 G/DL
- LEUKOCYTE COUNT [1]: 6.8 x10E3/uL
- LYMPHOCYTE [1]: 17%
- MEAN CORPUSCULAR HEMOGLOBIN [1]: 23.6 pg
- MEAN CORPUSCULAR HEMOGLOBIN CONCENTRATION [1]: 38.3 G/DL
- MEAN CORPUSCULAR VOLUME [1]: 61.63 fL
- MONOCYTE [1]: 2.33%
- NEUTROPHIL [1]: 80.67%
- NUCLEATED RED BLOOD CELLS [1]: 0 /100WBC
- PLATELET COUNT [1]: 1367.33 x10E3/uL
- ALANINE AMINOTRANSFERASE [1]: 309 u/L
- ALBUMIN [1]: 4.87 G/DL
- ALKALINE PHOSPHATASE [1]: 497.33 u/L
- ASPARTATE AMINOTRANSFERASE [1]: 475.33 u/L
- BLOOD UREA NITROGEN [1]: 23 mg/dL
- CARBON DIOXIDE [1]: 31.33 mmol/L
- CHLORIDE [1]: 95 MEQ/L
- CHOLESTEROL [1]: 140 mg/dL
- CREATINE PHOSPHOKINASE [1]: 224.67 u/L
- CREATININE [1]: 0.49 mg/dL
- GLUCOSE [1]: 479 mg/dL
- LACTATE DEHYDROGENASE [1]: 701 u/L
- LIPASE [1]: 15 u/L
- PHOSPHORUS [1]: 12.63 mg/dL
- POTASSIUM [1]: 5.83 MEQ/L
- SODIUM [1]: 145.23 MEQ/L
- TOTAL BILIRUBIN [1]: 0.17 mg/dL
- TOTAL PROTEIN [1]: 6.73 G/DL
- URIC ACID [1]: 1.57 mg/dL
- ABSOLUTE BASOPHIL [2]: 0 CELLS/uL
- ABSOLUTE EOSINOPHIL [2]: 0 CELLS/uL
- ABSOLUTE LYMPHOCYTE [2]: 9134.67 CELLS/uL
- ABSOLUTE MONOCYTE [2]: 0 CELLS/uL
- ABSOLUTE SEGMENTED NEUTROPHIL [2]: 898.67 CELLS/uL
- BASOPHIL [2]: 0%
- EOSINOPHIL [2]: 0%
- ERYTHROCYTE COUNT [2]: 5.23 x10E6/uL
- HEMATOCRIT [2]: 33.47%
- HEMOGLOBIN [2]: 13.37 G/DL
- LEUKOCYTE COUNT [2]: 10.03 x10E3/uL
- LYMPHOCYTE [2]: 90.67%
- MEAN CORPUSCULAR HEMOGLOBIN [2]: 25.6 pg
- MEAN CORPUSCULAR HEMOGLOBIN CONCENTRATION [2]: 39.93 G/DL
- MEAN CORPUSCULAR VOLUME [2]: 64.07 fL
- MONOCYTE [2]: 0%
- NEUTROPHIL [2]: 9.33%
- NUCLEATED RED BLOOD CELLS [2]: 0 /100WBC
- PLATELET COUNT [2]: 1185.33 x10E3/uL
- ALANINE AMINOTRANSFERASE [2]: 42.33 u/L
- ALBUMIN [2]: 4.73 G/DL
- ALKALINE PHOSPHATASE [2]: 429 u/L
- ASPARTATE AMINOTRANSFERASE [2]: 94.33 u/L
- BLOOD UREA NITROGEN [2]: 15.67 mg/dL
- CARBON DIOXIDE [2]: 32.67 mmol/L
- CHLORIDE [2]: 101.33 MEQ/L
- CHOLESTEROL [2]: 78.67 mg/dL
- CREATINE PHOSPHOKINASE [2]: 185 u/L
- CREATININE [2]: 0.23 mg/dL
- GLUCOSE [2]: 137.67 mg/dL
- LACTATE DEHYDROGENASE [2]: 131.33 u/L
- LIPASE [2]: 9.67 u/L
- PHOSPHORUS [2]: 12.3 mg/dL
- POTASSIUM [2]: 6.34 MEQ/L
- SODIUM [2]: 150.8 MEQ/L
- TOTAL BILIRUBIN [2]: 0.3 mg/dL
- TOTAL PROTEIN [2]: 6.73 G/DL
- URIC ACID [2]: 0.83 mg/dL
- ABSOLUTE BASOPHIL [3]: 0 CELLS/uL
- ABSOLUTE EOSINOPHIL [3]: 115 CELLS/uL
- ABSOLUTE LYMPHOCYTE [3]: 10473.33 CELLS/uL
- ABSOLUTE MONOCYTE [3]: 38.33 CELLS/uL
- ABSOLUTE SEGMENTED NEUTROPHIL [3]: 1440 CELLS/uL
- BASOPHIL [3]: 0%
- EOSINOPHIL [3]: 1%
- ERYTHROCYTE COUNT [3]: 5.54 x10E6/uL
- HEMATOCRIT [3]: 36.47%
- HEMOGLOBIN [3]: 14.6 G/DL
- LEUKOCYTE COUNT [3]: 12.07 x10E3/uL
- LYMPHOCYTE [3]: 87%
- MEAN CORPUSCULAR HEMOGLOBIN [3]: 26.37 pg
- MEAN CORPUSCULAR HEMOGLOBIN CONCENTRATION [3]: 40.07 G/DL
- MEAN CORPUSCULAR VOLUME [3]: 65.8 fL
- MONOCYTE [3]: 0.33%
- NEUTROPHIL [3]: 11.67%
- NUCLEATED RED BLOOD CELLS [3]: 0 /100WBC
- PLATELET COUNT [3]: 1230 x10E3/uL
- ALANINE AMINOTRANSFERASE [3]: 51.67 u/L
- ALBUMIN [3]: 4.73 G/DL
- ALKALINE PHOSPHATASE [3]: 334.67 u/L
- ASPARTATE AMINOTRANSFERASE [3]: 73 u/L
- BLOOD UREA NITROGEN [3]: 15.33 mg/dL
- CARBON DIOXIDE [3]: 31.33 mmol/L
- CHLORIDE [3]: 104 MEQ/L
- CHOLESTEROL [3]: 66 mg/dL
- CREATINE PHOSPHOKINASE [3]: 123.33 u/L
- CREATININE [3]: 0.18 mg/dL
- GLUCOSE [3]: 160 mg/dL
- LACTATE DEHYDROGENASE [3]: 97.33 u/L
- LIPASE [3]: 9.33 u/L
- PHOSPHORUS [3]: 14.23 mg/dL
- POTASSIUM [3]: 6.63 MEQ/L
- SODIUM [3]: 149.93 MEQ/L
- TOTAL BILIRUBIN [3]: 0.2 mg/dL
- TOTAL PROTEIN [3]: 6.63 G/DL
- URIC ACID [3]: 1.7 mg/dL
